Measured values from BindingDB's records for doi:10.1016/j.chembiol.2006.06.007 (University of Wisconsin-Madison, 2006).

Tests used:
Test in all cases: High-throughput FP Assay
[1] = target: T1, UDP-galactopyranose mutase (Klebsiella pneumoniae, UniProt Q762K7)
[2] = target: T2, UDP-galactopyranose mutase (Mycobacterium tuberculosis (strain ATCC 25618 / H37Rv), UniProt P9WIQ1)
[3] = target: T2, UDP-galactopyranose mutase; remark: listed apart in the source
Experimental: (§1) To access the ability of compounds to inhibit the catalytic activity of UGM, an HPLC assay was employed. Inhibition constants were determined by monitoring UGM activity at a single substrate concentration while varying inhibitor concentration.

[4] = target: T1, UDP-galactopyranose mutase; remark: listed apart in the source
Experimental: as §1

T2 sequence (P9WIQ1 whole entry): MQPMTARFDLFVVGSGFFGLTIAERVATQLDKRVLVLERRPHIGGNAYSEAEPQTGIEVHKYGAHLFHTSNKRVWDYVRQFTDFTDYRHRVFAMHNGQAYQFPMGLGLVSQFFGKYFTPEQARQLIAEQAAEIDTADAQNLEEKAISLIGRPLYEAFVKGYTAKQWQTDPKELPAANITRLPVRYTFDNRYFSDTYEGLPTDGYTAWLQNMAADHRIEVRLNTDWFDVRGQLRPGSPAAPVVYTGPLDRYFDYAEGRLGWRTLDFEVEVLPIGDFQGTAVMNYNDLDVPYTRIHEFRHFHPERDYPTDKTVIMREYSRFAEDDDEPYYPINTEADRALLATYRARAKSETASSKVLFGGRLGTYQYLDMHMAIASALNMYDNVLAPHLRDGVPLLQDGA
T1 sequence (Q762K7 whole entry): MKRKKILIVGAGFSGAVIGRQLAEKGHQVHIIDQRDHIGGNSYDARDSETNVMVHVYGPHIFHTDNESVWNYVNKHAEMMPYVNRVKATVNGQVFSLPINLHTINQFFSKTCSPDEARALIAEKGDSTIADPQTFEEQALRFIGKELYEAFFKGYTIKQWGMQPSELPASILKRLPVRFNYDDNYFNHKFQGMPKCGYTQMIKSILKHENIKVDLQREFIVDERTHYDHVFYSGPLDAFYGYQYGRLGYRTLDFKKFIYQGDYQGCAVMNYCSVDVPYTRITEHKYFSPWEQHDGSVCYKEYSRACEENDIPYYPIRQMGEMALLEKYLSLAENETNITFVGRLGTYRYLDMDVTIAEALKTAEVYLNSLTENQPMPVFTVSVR

O=C(O)c1cc(NC(=S)NCCCCCCOP(=O)(O)OP(=O)(O)OCC2OC(n3ccc(=O)[nH]c3=O)C(O)C2O)ccc1-c1c2ccc(=O)cc-2oc2cc(O)ccc12 (stereo unspecified) [Fluorescent Probe 1]
Kd [1]: 0.1 µM
Kd [2]: 0.16 µM
IC50 [3]: 5.7 µM

NS(=O)(=O)c1ccc(N2N=C(C(F)(F)F)/C(=C/c3ccc(-c4ccc5c(c4)C(=O)NC5=O)o3)C2=O)cc1 [Pyrazol analog, 2]
Kd [1]: 1.5 µM

CCOC(=O)c1ccc(-c2ccc(/C=C3\C(=O)N(c4ccc(S(N)(=O)=O)cc4)N=C3C(F)(F)F)o2)cc1 [Pyrazol analog, 3]
Kd [1]: 3.1 µM

CCOC(=O)c1cc(-c2ccc(/C=C3\C(=O)N(c4ccc(S(N)(=O)=O)cc4)N=C3C(F)(F)F)o2)ccc1Cl [Pyrazol analog, 4]
Kd [1]: 6.7 µM

O=C1c2cccc3c([N+](=O)[O-])ccc(c23)C(=O)N1Cc1cccnc1 [Pyridin analog, 11]
Kd [2]: 8 µM

O=C1N/C(=N\S(=O)(=O)c2ccccc2)S/C1=C1/C(=O)Nc2ccc([N+](=O)[O-])cc21 [Thiazolidinone core, 5]
Kd [1]: 4 µM
IC50 [4]: 17 µM

O=C(O)C(Cc1ccccc1)N1C(=O)/C(=C\c2cccc(Br)c2)SC1=S (stereo unspecified) [Thiazolidinone core, 6]
Kd [1]: 9.4 µM
Kd [2]: 12 µM
IC50 [4]: 1.6 µM
IC50 [3]: 65 µM

O=C1Nc2ccccc2/C1=C1/SC(=S)N(C(Cc2ccccc2)C(=O)O)C1=O (stereo unspecified) [Thiazolidinone core, 8]
Kd [1]: 10.7 µM
IC50 [4]: 93 µM

O=c1/c(=C/c2cc([N+](=O)[O-])c(O)cc2Cl)sc2nc3ccccc3n12 [Thiazolidinone core, 10]
Kd [2]: 5.3 µM
IC50 [4]: 4 µM
IC50 [3]: 0.028 µM

O=C(O)C(Cc1ccccc1)N1C(=O)/C(=C/c2cccc(Br)c2)SC1=S (stereo unspecified) [Thiazolidinone core, 15]
Kd [1]: > 33 µM
Kd [2]: > 33 µM

CC(C(=O)O)N1C(=O)/C(=C\c2cccc(Br)c2)SC1=S (stereo unspecified) [Thiazolidinone core, 16]
Kd [1]: > 33 µM
Kd [2]: > 330 µM

O=C(O)C(Cc1ccc(O)cc1)N1C(=O)/C(=C\c2cccc(Br)c2)SC1=S (stereo unspecified) [Thiazolidinone core, 17]
Kd [1]: > 11.2 µM
Kd [2]: > 33 µM

O=C(O)CN1C(=O)/C(=C2/C(=O)Nc3ccccc32)SC1=S [Thiazolidinone core, 18]
Kd [1]: > 33 µM
Kd [2]: > 330 µM

CC(C(=O)O)N1C(=O)/C(=C2/C(=O)Nc3ccccc32)SC1=S (stereo unspecified) [Thiazolidinone core, 19]
Kd [1]: > 33 µM
Kd [2]: > 330 µM

O=C1Nc2ccccc2/C1=C1/SC(=S)N(C(Cc2ccc(O)cc2)C(=O)O)C1=O (stereo unspecified) [Thiazolidinone core, 20]
Kd [1]: 14.1 µM
Kd [2]: > 33 µM

O=C(O)C(Cc1ccccc1)N1C(=O)/C(=C/c2cccc(Cl)c2)SC1=S (stereo unspecified) [Thiazolidinone core, 21]
Kd [1]: 21.3 µM
Kd [2]: 16 µM
IC50 [3]: 49 µM

O=C(O)C(Cc1ccccc1)N1C(=O)/C(=C/c2cccc(I)c2)SC1=S (stereo unspecified) [Thiazolidinone core, 22]
Kd [1]: 6.3 µM
Kd [2]: 6 µM
IC50 [3]: 41 µM

O=C(O)C(Cc1ccccc1)N1C(=O)/C(=C\c2cccc(F)c2)SC1=S (stereo unspecified) [Thiazolidinone core, 23]
Kd [1]: > 33 µM
Kd [2]: > 33 µM

O=C(O)[C@H](Cc1ccccc1)N1C(=O)/C(=C/c2ccc(Br)cc2)SC1=S [Thiazolidinone core, 24]
Kd [1]: > 33 µM
Kd [2]: 9.3 µM
IC50 [3]: 35 µM

O=C(O)C(Cc1ccccc1)N1C(=O)/C(=C\c2ccccc2Br)SC1=S (stereo unspecified) [Thiazolidinone core, 25]
Kd [1]: > 33 µM
Kd [2]: > 33 µM

O=C(O)C(Cc1ccccc1)N1C(=O)/C(=C\c2cccc([N+](=O)[O-])c2)SC1=S (stereo unspecified) [Thiazolidinone core, 26]
Kd [1]: > 33 µM
Kd [2]: > 33 µM

Cc1cccc(/C=C2/SC(=S)N(C(Cc3ccccc3)C(=O)O)C2=O)c1 (stereo unspecified) [Thiazolidinone core, 27]
Kd [1]: > 33 µM
Kd [2]: > 33 µM

COc1cccc(/C=C2/SC(=S)N(C(Cc3ccccc3)C(=O)O)C2=O)c1 (stereo unspecified) [Thiazolidinone core, 28]
Kd [1]: > 33 µM
Kd [2]: > 33 µM

O=C(O)C(Cc1ccccc1)N1C(=O)/C(=C\c2ccccc2)SC1=S (stereo unspecified) [Thiazolidinone core, 29]
Kd [1]: > 33 µM
Kd [2]: > 33 µM

O=C1Nc2ccc([N+](=O)[O-])cc2/C1=C1/SC(=S)N(C(Cc2ccccc2)C(=O)O)C1=O (stereo unspecified) [Thiazolidinone core, 30]
Kd [1]: 5.7 µM
Kd [2]: 10 µM
IC50 [3]: > 100 µM

O=C(O)N1C(=O)/C(=C\c2ccccc2)SC1=S [Thiazolidinone core, 31]
Kd [1]: > 33 µM
Kd [2]: > 330 µM
